Each structure is given as a SMILES string. Structures can show the parent of a compound that is named as a salt.

In one data set the test system is dorsal skin of a rabbit. Description: Primary irritation index of the active ingredient (4% by weight in Plastibase). The data set is classed as in vivo. The settings on record: 24 h enclosed application.
A short description of data set [1]: Octanol/water partition coefficient. It is filed as physicochemical. The settings on record: Log10, octanol / aqueous buffer pH 7. As to the method: In the present invention, the octanol/water partition coefficient is determined from the concentration of the active ingredient in each phase by adding the active ingredient to octanol and an aqueous buffer solution having a pH of 7 in a flask and then shaking the flask. Specifically, the octanol/water partition coefficient can be determined by calculating using the formula: octanol/water partition coefficient=Log10 (concentration in octanol phase/concentration in aqueous phase).

Protocol for dorsal skin of a rabbit: The phrase “low skin irritation” means skin irritation having a primary irritation index (P.I.I.) of 5 or less. The primary irritation index can be measured by the following method.
An active ingredient is added and mixed to an ointment base, Plastibase (manufactured by Taisho Pharmaceutical Co., Ltd.) so as to be 4% by weight based on the total weight, and dispersed to produce a preparation.
The dorsal skin of a rabbit is shaved with an electric clipper (with an electric shaver if necessary). On the dorsal healthy skin, two points in each of right and left sides of the dorsal midline, that is, four points in total are set to be an administration site. Next, the produced preparation is taken out with a spatula and spread evenly on a piece of lint having a size of 2 cm×2 cm, and the piece of lint is attached to the administration site. The piece of lint is fixed by covering with a non-woven adhesive bandage (manufactured by Nichiban Co., Ltd., MESHPORE, No. 50). Then, the administration sites are altogether wrapped with gauze and enclosed by covering with an adhesive cloth elastic bandage (manufactured by Nichiban Co., Ltd., ELASTOPORE, No. 100). The enclosure is released 24 hours after the start of administration, and the administered samples are removed.
The skin reaction is visually observed with the naked eye 24 hours after the administration (30 minutes after the release of the enclosure and the removal of the administered samples). […]
Specifically, for each administered sample at each time of observation, the individual score of the skin reaction at the administration site of each rabbit (the total of scores of erythema/eschar formation and edema formation) is calculated. Then, the primary irritation index (P.I.I.) is calculated from the individual scores at 24 hours and 72 hours after the administration (the score at 48 hours after the administration is not added). Specifically, the primary irritation index is calculated using Formulae (1) and (2) described below. […]

`CCN(C)C(=O)Oc1cccc([C@H](C)N(C)C)c1` [rivastigmine]: in the data set on dorsal skin of a rabbit, the “primary irritation index (P.I.I.) of the active ingredient” value amounted to 0.5.
One may read the logD as lipophilicity at a set pH, counting ionised and neutral species. For the compound `CCCc1nc(C)c2c(=O)[nH]c(-c3cc(S(=O)(=O)N4CCN(CC)CC4)ccc3OCC)nn12` [vardenafil hydrochloride hydrate], the octanol/water partition coefficient in data set [1] was 0.0. The compound also displayed a logD in data set [1] (octanol / aqueous buffer solution) of 0.
For `CC12CC3CC(C)(C1)CC(N)(C3)C2` [memantine hydrochloride], the “primary irritation index (P.I.I.) of the active ingredient” value in the data set with dorsal skin of a rabbit stood at 2.5.
Turning to `CC(C(=O)O)c1ccc(CC2CCCC2=O)cc1` (centres unmarked) [loxoprofen sodium dihydrate], the “primary irritation index (P.I.I.) of the active ingredient” value in the data set on dorsal skin of a rabbit is 0.3.

The values are drawn from US20220192996A1, “CORE-SHELL STRUCTURE, PREPARATION, MEDICINE FOR EXTERNAL APPLICATION, TAPE AGENT AND COSMETIC PRODUCT” (SEKISUI CHEMICAL CO., LTD., priority 2019, published 2022).
